Measurements taken from DBAASP.
Converted amounts (≈) assume the structure as drawn. Blank lines part the entries; values can stand above or below the compound they belong to.

Tests used:
Assay in all cases: ≥ marks a high value that may be exact or a test limit, other limits are often not marked, values filed in µg/mL are converted to µM
[1] = tested on: Bacillus subtilis CMCC 63501
[2] = tested on: Listeria monocytogenes ATCC 19115
[3] = tested on: Staphylococcus aureus CMCC 26003
[4] = tested on: Escherichia coli D31
[5] = tested on: Klebsiella pneumoniae ATCC 700603
[6] = tested on: Pseudomonas aeruginosa ATCC 10145
[7] = tested on: Staphylococcus aureus ATCC 27660
[8] = tested on: Bacillus subtilis KCTC 1998
[9] = tested on: Candida albicans KCTC 7270
[10] = tested on: Escherichia coli ATCC 25922
[11] = tested on: Escherichia coli CCARM 1229
[12] = tested on: Escherichia coli CCARM 1238
[13] = tested on: Listeria monocytogenes KCTC 3710
[14] = tested on: Pseudomonas aeruginosa 4007
[15] = tested on: Pseudomonas aeruginosa 4891
[16] = tested on: Pseudomonas aeruginosa ATCC 27853
[17] = tested on: Salmonella typhimurium KCTC 1926
[18] = tested on: Staphylococcus aureus ATCC 25923
[19] = tested on: Staphylococcus aureus CCARM 3090
[20] = tested on: Staphylococcus aureus CCARM 3518
[21] = tested on: Trichosporon beigelii KCTC 7707
[22] = tested on: Micrococcus luteus 1D00051
[23] = tested on: Staphylococcus aureus 1D00101
[24] = tested on: Vibrio vulnificus 1H00066
[25] = tested on: Candida albicans IOC 4558
[26] = tested on: Candida tropicalis IOC 4560
[27] = tested on: Cladosporium sp.
[28] = tested on: Cryptococcus neoformans
[29] = tested on: Escherichia coli SBS 363
[30] = tested on: Micrococcus luteus A270
[31] = tested on: Penicillium expansum
[32] = tested on: Pseudomonas aeruginosa 1570
[33] = tested on: Pseudomonas aeruginosa 5167
[34] = tested on: Pseudomonas aeruginosa 8600
[35] = tested on: Staphylococcus aureus 5118
[36] = tested on: Staphylococcus aureus ATCC 9144
[37] = tested on: Staphylococcus aureus E4049
[38] = tested on: Pseudomonas aeruginosa ATCC 47615
[39] = tested on: Staphylococcus aureus ATCC 29213
[40] = tested on: Staphylococcus aureus ATCC 33591
[41] = tested on: Staphylococcus epidermidis ATCC 35984

MIC [1]: ≥ 124 µM
MIC [2]: 31 µM (≈ 32 µg/mL)
MIC [3]: ≥ 62 µM
Structure (SMILES): CC[C@H](C)[C@H](NC(=O)[C@H](CCCN=C(N)N)NC(=O)[C@H](CCCN=C(N)N)NC(=O)[C@H](Cc1c[nH]c2ccccc12)NC(=O)[C@@H](N)Cc1ccccc1)C(=O)N[C@@H](CCCN=C(N)N)C(=O)N[C@H](C(N)=O)C(C)C [FWRRIRV]

MIC [4]: 0.94 µM (≈ 2.37 µg/mL)
MIC [5]: 1.88 µM (≈ 4.73 µg/mL)
MIC [6]: 1.88 µM (≈ 4.73 µg/mL)
MIC [7]: 0.94 µM (≈ 2.37 µg/mL)
Structure (SMILES): CC[C@H](C)[C@H](NC(=O)CNC(=O)[C@H](CCCCN)NC(=O)[C@H](Cc1ccccc1)NC(=O)[C@H](CC(C)C)NC(=O)[C@H](CCCCN)NC(=O)[C@H](CCCCN)NC(=O)[C@H](C)NC(=O)[C@H](CCCCN)NC(=O)[C@H](CCCCN)NC(=O)[C@H](Cc1ccccc1)NC(=O)CNC(=O)[C@H](CCCCN)NC(=O)[C@H](C)NC(=O)[C@H](Cc1c[nH]c2ccccc12)NC(=O)[C@@H](NC(=O)[C@H](CCCCN)NC(=O)[C@@H](NC(=O)[C@H](CC(C)C)NC(=O)[C@H](CCCCN)NC(=O)[C@@H](N)CCCCN)[C@@H](C)CC)C(C)C)C(=O)NCC(=O)O [KKLIKVWAKGFKKAKKLFKGIG]

MIC [8]: ≥ 32 µM
MIC [9]: ≥ 64 µM
MIC [10]: 16 µM (≈ 42.2 µg/mL)
MIC [11]: ≥ 64 µM
MIC [12]: ≥ 64 µM
MIC [13]: ≥ 32 µM
MIC [14]: ≥ 64 µM
MIC [15]: ≥ 64 µM
MIC [16]: 16 µM (≈ 42.2 µg/mL)
MIC [17]: 16 µM (≈ 42.2 µg/mL)
MIC [18]: 32 µM (≈ 84.5 µg/mL)
MIC [19]: ≥ 64 µM
MIC [20]: ≥ 64 µM
MIC [21]: ≥ 64 µM
Structure (SMILES): CC[C@H](C)[C@H](NC(=O)CNC(=O)[C@H](CCC(N)=O)NC(=O)[C@H](CO)NC(=O)[C@@H](NC(=O)[C@H](CCCCN)NC(=O)[C@H](CCCCN)NC(=O)[C@H](CC(C)C)NC(=O)[C@H](C)NC(=O)[C@H](CC(N)=O)NC(=O)[C@H](CC(C)C)NC(=O)CN)C(C)C)C(=O)N[C@@H](Cc1cnc[nH]1)C(=O)N[C@@H](CCC(=O)O)C(=O)N[C@@H](CO)C(=O)N[C@H](C(=O)N[C@@H](CCCCN)C(=O)N[C@@H](CC(C)C)C(=O)N[C@H](C(=O)N[C@@H](CC(N)=O)C(=O)N[C@@H](CC(N)=O)C(=O)N[C@@H](Cc1cnc[nH]1)C(=O)N[C@H](C(=O)N[C@@H](CCC(N)=O)C(N)=O)C(C)C)[C@@H](C)CC)[C@@H](C)CC [GLNALKKVSQGIHESIKLINNHVQ]

MIC [22]: 5 µM (≈ 15.8 µg/mL)
MIC [23]: ≥ 40 µM
MIC [24]: ≥ 300 µM
Structure (SMILES): CC[C@H](C)[C@H](NC(=O)[C@H](CS)NC(=O)[C@H](Cc1cnc[nH]1)NC(=O)[C@H](CCCN=C(N)N)NC(=O)[C@@H](N)CCCN=C(N)N)C(=O)N[C@@H](CCCCN)C(=O)N[C@@H](CCCCN)C(=O)N[C@@H](CS)C(=O)N[C@@H](CCSC)C(=O)N[C@@H](CCCCN)C(=O)N[C@@H](CO)C(=O)N[C@@H](CCCN=C(N)N)C(=O)N[C@@H](CCCCN)C(=O)N[C@@H](Cc1cnc[nH]1)C(=O)N[C@@H](CC(N)=O)C(=O)N[C@@H](CCC(=O)O)C(=O)N[C@@H](CCCN=C(N)N)C(=O)N[C@@H](CCSC)C(=O)N[C@H](C(=O)N[C@@H](CCCN=C(N)N)C(=O)N[C@H](C(=O)N[C@@H](CCCN=C(N)N)C(=O)N[C@@H](CCCN=C(N)N)C(=O)N[C@@H](CCCCN)C(=O)O)[C@@H](C)CC)[C@@H](C)CC [RRHCIKKCMKSRKHNERMIRIRRK]

MIC [25]: ≥ 59.4 µM
MIC [26]: 7.39 µM (≈ 11.4 µg/mL)
MIC [27]: ≥ 59.4 µM
MIC [28]: ≥ 59.4 µM
MIC [29]: 7.39 µM (≈ 11.4 µg/mL)
MIC [30]: ≥ 59.4 µM
MIC [31]: ≥ 59.4 µM
MIC [16]: 7.39 µM (≈ 11.4 µg/mL)
Structure (SMILES): CC(C)C[C@H](NC(=O)[C@H](Cc1ccccc1)NC(=O)[C@H](CC(=O)O)NC(=O)CNC(=O)[C@H](CCC(=O)O)NC(=O)CNC(=O)[C@H](CO)NC(=O)[C@H](CC(=O)O)NC(=O)[C@H](C)N)C(=O)N[C@@H](C)C(=O)N[C@@H](CCC(=O)O)C(=O)NCC(=O)NCC(=O)NCC(=O)N[C@H](C(=O)N[C@@H](CCCN=C(N)N)C(=O)O)C(C)C [ADSGEGDFLAEGGGVR]

MIC [32]: ≥ 43.5 µM
MIC [33]: ≥ 123 µM
MIC [34]: 10.9 µM (≈ 11.3 µg/mL)
Structure (SMILES): CC(C)C[C@H](NC(=O)[C@H](CC(C)C)NC(=O)[C@H](CCCCN)NC(=O)[C@H](CCCCN)NC(=O)[C@H](CC(C)C)NC(=O)[C@H](CC(C)C)NC(=O)[C@H](CCCCN)NC(=O)[C@H](CC(C)C)NC(=O)[C@H](C)N)C(N)=O [ALKLLKKLL]

MIC [35]: 2.2 µM (≈ 5 µg/mL)
MIC [36]: ≥ 271 µM
MIC [37]: ≥ 271 µM
Structure (SMILES): CC[C@H](C)[C@H](NC(=O)CNC(=O)[C@H](CC(=O)O)NC(=O)[C@@H](N)CC(=O)O)C(=O)N[C@@H](Cc1ccccc1)C(=O)N[C@H](C(=O)N[C@@H](C)C(=O)N[C@@H](Cc1ccccc1)C(=O)N[C@H](C(=O)N[C@@H](C)C(=O)N[C@H](C(=O)N[C@@H](CC(N)=O)C(=O)N[C@H](C(=O)N[C@H](C(=O)N[C@@H](CC(C)C)C(=O)N[C@H](C(=O)N[C@H](C(=O)N[C@H](C(=O)N[C@@H](Cc1ccccc1)C(=O)N[C@@H](Cc1ccc(O)cc1)C(=O)O)[C@@H](C)CC)C(C)C)[C@@H](C)O)[C@@H](C)CC)[C@@H](C)CC)[C@@H](C)CC)[C@@H](C)CC)[C@@H](C)CC [DDGIFIAFIAINIILTVIFY]

MIC [10]: 3.91 µM (≈ 7.8 µg/mL)
MIC [16]: 0.251 µM (≈ 0.5 µg/mL)
MIC [38]: 1.96 µM (≈ 3.91 µg/mL)
MIC [18]: 5.67 µM (≈ 11.3 µg/mL)
MIC [39]: 15.6 µM (≈ 31.2 µg/mL)
MIC [40]: 16 µM (≈ 32 µg/mL)
MIC [41]: 1 µM (≈ 2 µg/mL)
Structure (SMILES): CC[C@H](C)[C@H](NC(=O)[C@H](CCCCN)NC(=O)[C@@H](NC(=O)[C@H](Cc1ccccc1)NC(=O)[C@H](C)NC(=O)[C@H](CCCCN)NC(=O)CNC(=O)[C@H](Cc1ccccc1)NC(=O)[C@H](CCCCN)NC(=O)[C@H](CCCCN)NC(=O)[C@H](C)NC(=O)[C@H](CCCCN)NC(=O)[C@H](CCCCN)NC(=O)[C@H](CC(C)C)NC(=O)[C@H](Cc1ccccc1)NC(=O)[C@@H](N)CCCCN)C(C)C)C(=O)N[C@@H](CC(C)C)C(N)=O [KFLKKAKKFGKAFVKIL]
